Here are results for one compound from patent US10058419B2, “Oxidation resistant bioprosthetic tissues and preparation thereof” (The Children's Hospital of Philadelphia, priority 2011, dated 2018).

In this assay the test system is ROS activity. The assay is described as follows: Dihydrorhodamine-123 (DHR123) fluorescence measure of oxidation due to ROS, with H2O2 as oxidant. Particulars: DBP titrated in solution against H2O2 in the presence of DHR123 (FIG. 5). The source says:
The ability of DBP to inhibit ROS activity was verified both in solution and when bound to glut-pretreated pericardium, as described above, by monitoring the fluorescence of dihydrorhodamine-123 (DHR123; Molecular Probes Inc., Eugene Oreg.), which is a commonly used measure of oxidation due to ROS. Briefly, the capacity of DBP to reduce ROS activity was proven in this system by titrating DBP in solution against the oxidant hydrogen peroxide (H2O2) in the presence of DHR123.

Each structure is given as a SMILES string.

For the compound `CC(C)(C)c1cc(CCCN)cc(C(C)(C)C)c1O.Cl` [DBP, 4-hydroxy-3,5-di-tert-butylphenylpropylamine hydrochloride], the “oxidation signal (DHR123 fluorescence)” value is reported as “dose-dependent inhibition of oxidation signal”.
